Experimental data as given in PMC6272295, “In Vitro Neuroprotective Activities of Compounds from Angelica shikokiana Makino” (Molecules, 2015).

Assays:
[1] = target: T1, AChE from Electrophorus electricus (Electrophorus electricus, UniProt O42275); assay: biochemical; conditions: for IC50: Ellman's method, read-out: IC50 in the AChEI assay
T1 construct: purchased Sigma (St. Louis, MO, USA)
Experimental: AChEI activity was measured using Ellman’s method. AChE hydrolyzes the substrate ACTI into acetate and thiocholine. In a neutral and alkaline medium; thiocholine reacts with DTNB to give yellow colored 2-nitro-5-thiobenzoate, which can be detected spectrophotometrically at 405 nm. Briefly, in a 96-well plate, 25 µL of 15 mM ACTI, 125 µL of 3 mM DTNB in buffer B (50 mM Tris HCl, pH = 8, 0.1 M NaCl, 0.02 M MgCl2·6H2O), 50 µL of buffer A (50 mM Tris-HCl, PH 8, 0.1% BSA) and 25 µL of tested sample (dissolved in 25% DMSO) were mixed, and the absorbance was measured using a microplate reader (Biotek, Winooski, VT, USA) at 405 nm every 16 s ten times. Then, 25 µL of AChE (0.25 U/mL in buffer A) was added and the absorbance was measured ten times every 16 s. A solution of 25% DMSO was used as a negative control. Absorbance was plotted against time and enzyme activity was calculated from the slope of the line so obtained and expressed as a percentage compared to an assay using a buffer without any inhibitor. Fractions were tested at 400 µg/mL. To avoid any increase in absorbance due to the color of the compounds or spontaneous hydrolysis of the substrate, the absorbance before addition of the enzyme was subtracted from the absorbance after adding the enzyme.
IC50 values of isolated compounds in AChEI and scavenging of hydroxyl radical assays were calculated using Probit Analysis (SPSS Version 16.0 for Windows, SPSS Inc., Chicago, IL, USA) for five different concentrations in three independent experiments. Cell viability was expressed as a percentage of MTT reduction, assuming that the viability of cells treated with 1% DMSO as a negative control was 100%. Figures were built in Microsoft Excel 2010. All values are the mean ± SD of three independent experiments. Data were analyzed for statistical significance using one-way ANOVA, followed by Dunnet’s test as a post-hoc test with GraphPad Prism 5.0 software for Windows (Inc., San Diego, CA, USA).

Aβ25-35 = target: T2, Aβ25-35 (Homo sapiens, UniProt P05067); assay: Thioflavin T assay of Aβ25-35 aggregation; type: biochemical; conditions: for effect on Th-T fluorescence (in words): 25-100 µM; for Decrease of ThT Fluorescence: summary Table 4; as to Decrease of ThT Fluorescence: key: +: Weak activity; ++: Strong activity
T2 construct: Aβ25-35 (25 µM) freshly prepared in PBS; purchased Sigma (St. Louis, MO, USA)
Experimental: Thioflavin T (ThT), abenzothiazole salt, is used to quantify misfolded protein aggregates and amyloid peptides. ThT is a non-fluorescent dye which, when it binds to amyloid rich aggregates, produces a fluorescent signal proportional to the quantity of amyloid aggregation. Aβ25-35 (25 µM) freshly prepared in PBS (50 mM, pH = 7.4) was incubated at 37 °C with or without different concentrations (100, 50, 25 µM) of isolated compounds at 37 °C and shaken at 300 rpm for 3 h. One hundred µL of each incubated sample was transferred to a 96-well plate, and five µM ThT was added. The ThT fluorescence was measured over 180 min at 10-min intervals at emission λ at 485 nm; and excitation λ at 442 nm using FlexStation 3 Microplate Reader (Molecular Devices, LLC, Sunnyvale, CA, USA), and data were managed by SoftMax Pro® 5.4.1 software. The samples were constantly shaken every 60 sec during the incubation. 1% DMSO and different concentrations of ECCG were taken as negative and positive controls, respectively. The area under the curve (AUC) was taken as indicative of fluorescence intensity. Fluorescence of samples and ThT without Aβ25-35 (sample blank) was detected and subtracted from the final AUC to prevent any interference.

neuro-2A cells = assay: Protection against H2O2-induced neurotoxicity (MTT); type: cell-based, Mouse; conditions: for neuroprotection against H2O2-induced neurotoxicity (in words): 6.25-100 µM, H2O2 150 µM; for Protection against H2O2: summary Table 4
Experimental: (§1) Neuro-2A cell line was maintained in Eagle’s Minimum Essential medium supplemented with 10% fetal bovine serum, 1% of 100× antibiotic—antimitotic agents (containing penicillin and streptomycin) in a humid atmosphere of 5% (v/v) CO2 and 95% (v/v) air at 37 °C. Neuro-2A cells were plated in 96-well cell culture plates at a density of 3 × 10^4 cells/well for H2O2 and intracellular ROS assays and 2.5 × 10^3 cells/well for the Aβ25-35-assay.
Cell viability was determined by MTT reduction assay. Briefly, after treatment with isolated compounds, the media was replaced by fresh one after washing the cells with 100 µL PBS and 20 µL of MTT (5 mg/mL) was added to each well. After 4 h incubation at 37 °C, the state of cells was checked under microscope to confirm either cytotoxicity in H2O2 and Aβ25-35 wells or protection in positive controls and isolated compounds ones. The supernatants were aspirated carefully, and 150 µL of DMSO was added to each well to dissolve the dark blue formazan crystals. The absorbance was measured using a microplate reader at 570 nm.
H2O2 interacts with metals in the medium, producing highly cytotoxic hydroxyl radicals that induce neurotoxicity. So, active compounds are those that can scavenge free radicals and increase the cell viability. This assay was performed as previously described with slight modifications. Briefly, the concentration of H2O2 that decreased cell viability to about 50% was determined as follows: cells were cultured in a 96-well plate and after 24 h were further incubated with different concentrations of H2O2 (50, 100, 150, 200 µM) freshly prepared from 30% stock solution. After 24 h, cell viability was determined using the MTT reduction method. H2O2 at a concentration of 150 µM had the desired cytotoxicity and was used for the next step.

[2] = system: intracellular ROS in Neuro-2A cells; assay: Scavenging of intracellular reactive oxygen species (Bes-H2O2-AC, DFF fluorescence); type: cell-based, Mouse; conditions: for decrease of DFF fluorescence intensity (intracellular ROS): only at the higher concentration of 100 µM, H2O2 600 µM 30 min; for Intracellular ROS Scavenging: summary Table 4; as to Intracellular ROS Scavenging: key: +: Weak activity; ++: Strong activity
Experimental: as §1
This assay was performed as previously described with some modifications. Briefly, Neuro-2A cells were seeded in 96-well Clear Fluorescence Black Plate (number 655090, Greiner Bio-one, Tokyo, Japan). Cells were treated with three different concentrations (25, 50, 100 µM) of the samples. After 2 h incubation, cells were subjected to oxidative stress using 600 µM of H2O2 for 30 min. The nucleus was stained by Hoechst 33342 (Dojindo, Kumamoto, Japan), and the amount of difluorofluorescein (DFF) released from the reaction of H2O2 and BES-H2O2-Ac was taken as an indication of the amount of intracellular H2O2 and ROS. Images of each well were acquired using an IN Cell Analyzer 1000 (GE Healthcare, Buckinghamshire, UK) using 360-nm (Hoechst 33342) and 480-nm (BES-H2O2-Ac) excitation filters and monitored through 460-nm and 535-nm emission filters, respectively. Developer software was used to analyze the images of Hoechst 33342 and BES-H2O2-Ac staining, and the resulting data were then applied to Spotfire Decision Site Client 8.2 software for visualizing the results.

T1 sequence (O42275 24-633): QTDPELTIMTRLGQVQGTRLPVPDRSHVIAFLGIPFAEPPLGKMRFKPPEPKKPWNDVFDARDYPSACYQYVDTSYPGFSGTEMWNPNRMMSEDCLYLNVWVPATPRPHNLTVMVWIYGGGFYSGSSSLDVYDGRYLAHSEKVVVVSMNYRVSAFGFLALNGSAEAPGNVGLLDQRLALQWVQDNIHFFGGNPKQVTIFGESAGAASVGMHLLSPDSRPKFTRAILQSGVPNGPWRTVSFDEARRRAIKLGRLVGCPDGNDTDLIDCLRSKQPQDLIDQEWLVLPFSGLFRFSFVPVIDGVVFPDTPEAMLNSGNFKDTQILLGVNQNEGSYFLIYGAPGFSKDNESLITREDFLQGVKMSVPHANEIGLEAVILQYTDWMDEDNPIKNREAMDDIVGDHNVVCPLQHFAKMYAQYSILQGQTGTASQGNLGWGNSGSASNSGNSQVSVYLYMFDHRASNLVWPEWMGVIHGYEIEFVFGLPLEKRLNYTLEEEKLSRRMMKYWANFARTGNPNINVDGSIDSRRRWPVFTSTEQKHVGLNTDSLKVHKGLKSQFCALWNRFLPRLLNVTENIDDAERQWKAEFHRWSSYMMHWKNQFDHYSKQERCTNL

Row | SMILES | IC50 [1] | effect on Th-T fluorescence (in words) (Aβ25-35) | Decrease of ThT Fluorescence (Aβ25-35) | neuroprotection against H2O2-induced neurotoxicity (in words) (neuro-2A cells) | Protection against H2O2 (neuro-2A cells) | decrease of DFF fluorescence intensity (intracellular ROS) [2] | Intracellular ROS Scavenging [2] | inhibition at 250 µM ([1]; at 250 µM)
1 | CC(=O)OC1c2c(ccc3ccc(=O)oc23)OC(C)(C)C1OC(=O)C(C)(O)C(C)O (centres unmarked) [Hyuganin E (6), hyuganin E] | 286.5 ± 2.1 µM | decreased Th-T fluorescence in a dose-dependent manner | ++ | significant (p < 0.05) increase in cell viability at 100 µM | + | decrease the fluorescence intensity | + | 
2 | O=c1c(O)c(-c2ccc(O)cc2)oc2cc(O)cc(O)c12 [Kaempferol (8), kaempferol] |  | weak activity | + | significant (p < 0.05) increase in cell viability at 100 µM | + | decrease the fluorescence intensity | + | 30%
3 | O=c1c(OC2OC(CO)C(O)C(O)C2O)c(-c2ccc(O)cc2)oc2cc(O)cc(O)c12 (centres unmarked) [Kaempferol-3-O-glucoside (13), kaempferol-3-O-glucoside] | 80.4 ± 5.1 µM | weak activity | + | significant (p < 0.05) increase in cell viability at 100 µM | + |  | + | 
